Earlier results as cited in patent US20250213514A1, “STABLE, LIQUID PHARMACEUTICAL COMPOSITIONS COMPRISING MELPHALAN” (GOOD HEALTH, LLC, priority 2022, published 2025).
Like-named read-outs stand apart in the source and are kept apart here.

N[C@@H](Cc1ccc(N(CCCl)CCCl)cc1)C(=O)O [Melphalan]
Solubility (in ethanol, methanol): slightly soluble | Solubility (in propylene glycol and dilute mineral acids): soluble | Solubility (in water, chloroform, and ether): practically insoluble
